The NIST ThermoML archive (doi:10.1016/j.fluid.2018.10.024)

Legend:
[1] = xn = mol fraction of the nth substance listed; settings: 101 kPa, Liquid; for viscosity: Capillary tube (Ostwald / Ubbelohde) method; for mass density: Vibrating tube method
[2] = refractive index (Na D-line) (dimensionless); xn = mol fraction of the nth substance listed; settings: 101 kPa, Liquid, Standard Abbe refractometry

ClC(Cl)Cl [trichloromethane] + CO
Settings | mass density, [1] [kg/m3] | refractive index, [2] | viscosity, [1] [mPa·s]
298.15 K, x2 = 0 | 1478.75 | 1.4422 | 0.5916
298.15 K, x2 = 0.0999 | 1443.84 | 1.4379 | 0.6213
298.15 K, x2 = 0.2012 | 1403.84 | 1.4312 | 0.6437
298.15 K, x2 = 0.3015 | 1358.87 | 1.4217 | 0.6585
298.15 K, x2 = 0.3991 | 1309.46 | 1.4115 | 0.6642
298.15 K, x2 = 0.502 | 1250.29 | 1.4018 | 0.6635
298.15 K, x2 = 0.5998 | 1186.04 | 1.3903 | 0.6552
298.15 K, x2 = 0.7012 | 1108.93 | 1.3789 | 0.6385
298.15 K, x2 = 0.7998 | 1020.91 | 1.3649 | 0.6182
298.15 K, x2 = 0.9001 | 914.54 | 1.3485 | 0.5812
303.15 K, x2 = 0 | 1469.16 | 1.4397 | 0.558
303.15 K, x2 = 0.0999 | 1434 | 1.4327 | 0.5797
303.15 K, x2 = 0.2012 | 1394.48 | 1.4257 | 0.5937
303.15 K, x2 = 0.3015 | 1350.17 | 1.4171 | 0.6053
303.15 K, x2 = 0.3991 | 1301.28 | 1.4084 | 0.6038
303.15 K, x2 = 0.502 | 1242.63 | 1.3979 | 0.6028
303.15 K, x2 = 0.5998 | 1178.79 | 1.3881 | 0.5919
303.15 K, x2 = 0.7012 | 1102.19 | 1.377 | 0.5796
303.15 K, x2 = 0.7998 | 1014.72 | 1.3633 | 0.5571
303.15 K, x2 = 0.9001 | 909 | 1.3467 | 0.533
308.15 K, x2 = 0 | 1460.01 | 1.4356 | 0.5333
308.15 K, x2 = 0.0999 | 1424.97 | 1.4289 | 0.5525
308.15 K, x2 = 0.2012 | 1385.67 | 1.4212 | 0.5656
308.15 K, x2 = 0.3015 | 1341.86 | 1.4116 | 0.5743
308.15 K, x2 = 0.3991 | 1293.54 | 1.4031 | 0.5766
308.15 K, x2 = 0.502 | 1235.37 | 1.3953 | 0.5716
308.15 K, x2 = 0.5998 | 1171.85 | 1.3856 | 0.5627
308.15 K, x2 = 0.7012 | 1095.59 | 1.3729 | 0.5487
308.15 K, x2 = 0.7998 | 1008.7 | – | 0.5267
308.15 K, x2 = 0.9001 | 903.73 | 1.3443 | 0.5044
313.15 K, x2 = 0 | 1450.39 | 1.4338 | 0.5072
313.15 K, x2 = 0.0999 | 1415.61 | 1.427 | 0.5241
313.15 K, x2 = 0.2012 | 1376.61 | 1.4211 | 0.5355
313.15 K, x2 = 0.3015 | 1333.14 | 1.4127 | 0.5429
313.15 K, x2 = 0.3991 | 1285.19 | 1.4049 | 0.5434
313.15 K, x2 = 0.502 | 1227.45 | 1.3943 | 0.5403
313.15 K, x2 = 0.5998 | 1164.4 | 1.3839 | 0.5264
313.15 K, x2 = 0.7012 | 1088.7 | 1.3722 | 0.5134
313.15 K, x2 = 0.7998 | 1002.44 | 1.3592 | 0.4924
313.15 K, x2 = 0.9001 | 898.23 | – | 0.4713
318.15 K, x2 = 0 | 1440.03 | 1.4297 | 0.4849
318.15 K, x2 = 0.0999 | 1405.51 | 1.4201 | 0.4991
318.15 K, x2 = 0.2012 | 1366.88 | 1.4174 | 0.5108
318.15 K, x2 = 0.3015 | 1323.78 | 1.4093 | 0.5144
318.15 K, x2 = 0.3991 | 1276.2 | 1.4023 | 0.5142
318.15 K, x2 = 0.502 | 1218.91 | 1.3927 | 0.5108
318.15 K, x2 = 0.5998 | 1156.37 | 1.3817 | 0.4976
318.15 K, x2 = 0.7012 | 1081.29 | 1.3719 | 0.483
318.15 K, x2 = 0.7998 | 995.73 | 1.3576 | 0.4655
318.15 K, x2 = 0.9001 | 892.36 | 1.3406 | 0.4426

CC(C)=O [acetone] + CO
Settings | mass density, [1] [kg/m3] | refractive index, [2] | viscosity, [1] [mPa·s]
298.15 K, x2 = 0 | 784.41 | 1.3558 | 0.3034
298.15 K, x2 = 0.1036 | 786.21 | 1.3539 | 0.3003
298.15 K, x2 = 0.2043 | 787.49 | 1.3521 | 0.3006
298.15 K, x2 = 0.302 | 788.57 | 1.3502 | 0.3059
298.15 K, x2 = 0.4013 | 789.53 | 1.3483 | 0.3143
298.15 K, x2 = 0.5004 | 790.3 | 1.3458 | 0.3299
298.15 K, x2 = 0.6006 | 790.81 | 1.3426 | 0.3533
298.15 K, x2 = 0.6969 | 790.98 | 1.3389 | 0.3852
298.15 K, x2 = 0.802 | 790.73 | 1.3352 | 0.4316
298.15 K, x2 = 0.8965 | 789.83 | 1.3315 | 0.4833
303.15 K, x2 = 0 | 778.66 | 1.3534 | 0.2966
303.15 K, x2 = 0.1036 | 780.47 | 1.3513 | 0.295
303.15 K, x2 = 0.2043 | 781.81 | 1.3497 | 0.2939
303.15 K, x2 = 0.302 | 782.95 | 1.3482 | 0.2987
303.15 K, x2 = 0.4013 | 784 | 1.3464 | 0.3073
303.15 K, x2 = 0.5004 | 784.89 | 1.3439 | 0.3188
303.15 K, x2 = 0.6006 | 785.55 | 1.3407 | 0.34
303.15 K, x2 = 0.6969 | 785.85 | 1.3369 | 0.3663
303.15 K, x2 = 0.802 | 785.67 | 1.3328 | 0.4051
303.15 K, x2 = 0.8965 | 784.85 | 1.3291 | 0.4472
308.15 K, x2 = 0 | 773.08 | 1.3509 | 0.2831
308.15 K, x2 = 0.1036 | 774.93 | 1.3493 | 0.2807
308.15 K, x2 = 0.2043 | 776.27 | 1.3481 | 0.2803
308.15 K, x2 = 0.302 | 777.4 | 1.3465 | 0.2844
308.15 K, x2 = 0.4013 | 778.45 | 1.3444 | 0.2945
308.15 K, x2 = 0.5004 | 779.36 | 1.3419 | 0.3103
308.15 K, x2 = 0.6006 | 780.05 | 1.3385 | 0.3255
308.15 K, x2 = 0.6969 | 780.38 | 1.3349 | 0.3531
308.15 K, x2 = 0.802 | 780.24 | 1.3309 | 0.3857
308.15 K, x2 = 0.8965 | 779.53 | 1.3269 | 0.4278
313.15 K, x2 = 0 | 766.95 | 1.349 | 0.2689
313.15 K, x2 = 0.1036 | 768.83 | 1.3469 | 0.2647
313.15 K, x2 = 0.2043 | 770.26 | 1.3457 | 0.2657
313.15 K, x2 = 0.302 | 771.49 | 1.3435 | 0.2704
313.15 K, x2 = 0.4013 | 772.65 | 1.3415 | 0.2769
313.15 K, x2 = 0.5004 | 773.67 | 1.3392 | 0.2881
313.15 K, x2 = 0.6006 | 774.49 | 1.3362 | 0.3057
313.15 K, x2 = 0.6969 | 775.01 | 1.3329 | 0.3316
313.15 K, x2 = 0.802 | 775.12 | 1.3289 | 0.3619
313.15 K, x2 = 0.8965 | 774.65 | 1.3253 | 0.3989
318.15 K, x2 = 0 | 761.26 | 1.3449 | 0.2511
318.15 K, x2 = 0.1036 | 763.15 | 1.3432 | 0.2478
318.15 K, x2 = 0.2043 | 764.64 | 1.3414 | 0.2494
318.15 K, x2 = 0.302 | 765.92 | 1.3397 | 0.2526
318.15 K, x2 = 0.4013 | 767.11 | 1.3381 | 0.2601
318.15 K, x2 = 0.5004 | 768.17 | 1.3361 | 0.2692
318.15 K, x2 = 0.6006 | 769.04 | 1.3334 | 0.2903
318.15 K, x2 = 0.6969 | 769.62 | 1.3303 | 0.3096
318.15 K, x2 = 0.802 | 769.88 | 1.3262 | 0.3377
318.15 K, x2 = 0.8965 | 769.53 | 1.3221 | 0.375
